The text below walks through data of patent US7605174B2, “Indane derivatives as modulators of ion channels” (Vertex Pharmaceuticals Incorporated, priority 2005, dated 2009).

Structures are written as SMILES. Like-named read-outs stand apart in the source and are kept apart here.

As a reminder, the IC50 is the concentration needed to halve the response being measured.

Assay [1] addresses T1, NaV1.3 (Homo sapiens, UniProt Q9NY46). Kind of assay: Activity against NaV 1.3 channel (optical membrane potential assay, electrical stimulation). Details: expressed in transfected cells; host or cells: HEK293. In kind it is cell-based. As to the method:
Compounds of the invention are useful as antagonists of voltage-gated sodium ion channels. Antagonist properties of test compounds were assessed as follows. Cells expressing the NaV of interest were placed into microtiter plates. After an incubation period, the cells were stained with fluorescent dyes sensitive to the transmembrane potential. The test compounds were added to the microtiter plate. The cells were stimulated with either a chemical or electrical means to evoke a NaV dependent membrane potential change from unblocked channels, which was detected and measured with trans-membrane potential-sensitive dyes. Antagonists were detected as a decreased membrane potential response to the stimulus. The optical membrane potential assay utilized voltage-sensitive FRET sensors described by Gonzalez and Tsien (See, Gonzalez, J. E. and R. Y. Tsien (1995) “Voltage sensing by fluorescence resonance energy transfer in single cells” Biophys J 69(4): 1272-80, and Gonzalez, J. E. and R. Y. Tsien (1997) “Improved indicators of cell membrane potential that use fluorescence resonance energy transfer” Chem Biol 4(4): 269-77) in combination with instrumentation for measuring fluorescence changes such as the Voltage/Ion Probe Reader (VIPR®) (See, Gonzalez, J. E., K. Oades, et al. (1999) “Cell-based assays and instrumentation for screening ion-channel targets” Drug Discov Today 4(9): 431-439).
The following is an example of how NaV1.3 inhibition activity is measured using the optical membrane potential method#2. Other subtypes are performed in an analogous mode in a cell line expressing the NaV of interest.
HEK293 cells stably expressing NaV1.3 are plated into 96-well microtiter plates. After an appropriate incubation period, the cells are stained with the voltage sensitive dyes CC2-DMPE/DiSBAC2(3) as follows.
2×CC2-DMPE=20 μM CC2-DMPE: 10 mM CC2-DMPE is vortexed with an equivalent volume of 10% pluronic, followed by vortexing in required amount of HBSS containing 10 mM HEPES. Each cell plate will require 5 mL of 2×CC2-DMPE. 50 μL of 2×CC2-DMPE is to wells containing washed cells, resulting in a 10 μM final staining concentration. The cells are stained for 30 minutes in the dark at RT.
2×DISBAC2(3) with ABSC1=6 μM DISBAC2(3) and 1 mM ABSC1: The required amount of 10 mM DISBAC2(3) is added to a 50 ml conical tube and mixed with 1 μL 10% pluronic for each mL of solution to be made and vortexed together. Then HBSS/HEPES is added to make up 2× solution. Finally, the ABSC1 is added.
The 2×DiSBAC2(3) solution can be used to solvate compound plates. Note that compound plates are made at 2× drug concentration. Wash stained plate again, leaving residual volume of 50 μL. Add 50 uL/well of the 2×DiSBAC2(3) w/ABSC1. Stain for 30 minutes in the dark at RT.
The electrical stimulation instrument and methods of use are described in ION Channel Assay Methods PCT/US01/21652, herein incorporated by reference. The instrument comprises a microtiter plate handler, an optical system for exciting the coumarin dye while simultaneously recording the coumarin and oxonol emissions, a waveform generator, a current- or voltage-controlled amplifier, and a device for inserting electrodes in well. Under integrated computer control, this instrument passes user-programmed electrical stimulus protocols to cells within the wells of the microtiter plate.
• 1. Insert or use electrodes into each well to be assayed. • 2. Use the current-controlled amplifier to deliver stimulation wave pulses for 3 s. Two seconds of pre-stimulus recording are performed to obtain the un-stimulated intensities. Five seconds of post-stimulation recording are performed to examine the relaxation to the resting state.
Data are analyzed and reported as normalized ratios of background-subtracted emission intensities measured in the 460 nm and 580 nm channels. Background intensities are then subtracted from each assay channel. […]
Target sequence in this assay (Q9NY46 whole entry): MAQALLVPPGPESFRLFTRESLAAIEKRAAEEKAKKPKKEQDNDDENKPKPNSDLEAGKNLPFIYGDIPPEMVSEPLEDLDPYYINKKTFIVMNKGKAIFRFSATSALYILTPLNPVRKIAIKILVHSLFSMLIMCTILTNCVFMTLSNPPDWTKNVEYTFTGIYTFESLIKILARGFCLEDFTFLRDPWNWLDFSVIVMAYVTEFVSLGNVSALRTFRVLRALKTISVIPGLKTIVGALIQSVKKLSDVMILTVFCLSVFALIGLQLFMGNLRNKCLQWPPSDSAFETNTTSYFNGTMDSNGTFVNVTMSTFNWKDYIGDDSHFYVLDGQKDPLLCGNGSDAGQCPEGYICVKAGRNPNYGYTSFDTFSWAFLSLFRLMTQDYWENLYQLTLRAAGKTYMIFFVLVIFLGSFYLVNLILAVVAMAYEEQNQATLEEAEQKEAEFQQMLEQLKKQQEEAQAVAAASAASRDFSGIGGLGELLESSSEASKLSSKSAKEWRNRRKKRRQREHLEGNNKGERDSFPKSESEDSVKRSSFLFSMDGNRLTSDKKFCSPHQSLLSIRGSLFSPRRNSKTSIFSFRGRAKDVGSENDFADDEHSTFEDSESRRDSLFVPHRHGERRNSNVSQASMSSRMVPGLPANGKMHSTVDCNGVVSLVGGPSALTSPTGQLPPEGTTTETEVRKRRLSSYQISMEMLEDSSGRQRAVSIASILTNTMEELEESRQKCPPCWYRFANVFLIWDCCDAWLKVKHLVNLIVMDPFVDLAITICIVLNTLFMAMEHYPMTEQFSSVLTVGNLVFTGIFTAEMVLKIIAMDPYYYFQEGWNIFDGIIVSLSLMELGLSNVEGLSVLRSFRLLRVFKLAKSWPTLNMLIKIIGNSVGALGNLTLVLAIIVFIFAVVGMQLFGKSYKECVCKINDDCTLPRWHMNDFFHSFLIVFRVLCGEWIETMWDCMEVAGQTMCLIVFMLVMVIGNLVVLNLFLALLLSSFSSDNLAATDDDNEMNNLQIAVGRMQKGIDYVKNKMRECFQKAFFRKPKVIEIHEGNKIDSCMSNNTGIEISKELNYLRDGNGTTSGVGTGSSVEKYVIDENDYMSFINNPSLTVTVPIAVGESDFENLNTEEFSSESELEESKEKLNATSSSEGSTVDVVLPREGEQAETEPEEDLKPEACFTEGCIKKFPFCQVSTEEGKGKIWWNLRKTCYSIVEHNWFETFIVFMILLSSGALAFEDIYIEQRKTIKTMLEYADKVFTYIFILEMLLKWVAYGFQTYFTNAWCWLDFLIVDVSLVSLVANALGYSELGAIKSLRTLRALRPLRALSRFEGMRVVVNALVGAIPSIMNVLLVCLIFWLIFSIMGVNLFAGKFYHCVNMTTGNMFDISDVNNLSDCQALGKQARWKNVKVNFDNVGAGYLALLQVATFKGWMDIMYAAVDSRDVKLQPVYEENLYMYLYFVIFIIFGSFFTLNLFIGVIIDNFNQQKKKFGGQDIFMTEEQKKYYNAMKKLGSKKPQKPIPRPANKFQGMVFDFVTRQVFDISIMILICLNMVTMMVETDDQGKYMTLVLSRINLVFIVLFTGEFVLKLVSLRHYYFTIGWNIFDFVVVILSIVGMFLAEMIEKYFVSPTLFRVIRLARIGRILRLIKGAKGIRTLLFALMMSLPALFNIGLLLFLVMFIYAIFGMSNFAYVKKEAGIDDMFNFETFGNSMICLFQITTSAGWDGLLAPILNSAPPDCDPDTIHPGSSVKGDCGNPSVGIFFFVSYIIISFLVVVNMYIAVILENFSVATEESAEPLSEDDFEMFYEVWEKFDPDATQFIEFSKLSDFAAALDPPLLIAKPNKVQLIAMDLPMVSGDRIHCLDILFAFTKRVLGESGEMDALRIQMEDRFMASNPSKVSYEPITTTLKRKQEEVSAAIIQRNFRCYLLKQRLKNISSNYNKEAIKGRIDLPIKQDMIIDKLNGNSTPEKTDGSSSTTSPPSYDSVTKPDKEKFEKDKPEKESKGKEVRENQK

For assay [2] the following is noted: in vivo; cited from earlier work.
For assay [3], the target named is T1, NaV1.3. Particulars: read-out: TTX IC50; cited from earlier work.
Target sequence in this assay (Q9NY46 whole entry, looked up): as the sequence (Q9NY46 whole entry) above
The mark [4] stands for this setting: NaV 1.3 channel, read-out: IC50.

For the compound `O=C(COc1ccc(Cl)cc1)NC1Cc2ccc(S(=O)(=O)Nc3nccs3)cc2C1` (stereo not shown) [Compound 2], the IC50 on NaV1.3 [1] (setting [4]) was under 2 µM. Same read-out and setting: under `O=C(NC1Cc2ccc(S(=O)(=O)Nc3nccs3)cc2C1)c1ccccc1F` (stereo not shown) [Compound 14] stands over 5 µM; under `O=C(NC1Cc2ccc(S(=O)(=O)Nc3nccs3)cc2C1)c1cc(F)ccc1F` (stereo not shown) [Compound 3], over 5 µM.

Take `O=C(NC1Cc2ccc(S(=O)(=O)Nc3nccs3)cc2C1)Oc1ccc(Cl)cc1` (stereo not shown) [Compound 11]: on NaV1.3 [1], the IC50 is under 2 µM. `O=C(NC1Cc2ccc(S(=O)(=O)Nc3nccs3)cc2C1)c1ccc(C(F)(F)F)cc1` (stereo not shown) [Compound 10]: the IC50 on NaV1.3 [1] (setting [4]) was over 5 µM.

Take `O=C(NC1Cc2ccc(S(=O)(=O)Nc3nccs3)cc2C1)c1c(F)cc(F)cc1F` (stereo not shown) [Compound 7]: at NaV1.3 [1] (setting [4]), the IC50 was over 5 µM. Regarding `O=C(COc1ccc(F)cc1)NC1Cc2ccc(S(=O)(=O)Nc3nccs3)cc2C1` (stereo not shown) [Compound 13], the concentration for half-maximal inhibition (IC50) on NaV1.3 [1] (setting [4]) lay in the range of 2 to 5 µM.

With `O=C(COc1ccc(F)c(Cl)c1)NC1Cc2ccc(S(=O)(=O)Nc3nccs3)cc2C1` (stereo not shown) [Compound 5], on NaV1.3 [1] (setting [4]), the IC50 is under 2 µM. For the compound `NCC1(CC(=O)O)CCCCC1` [Gabapentin], the “patients in whom the drug works” value in assay [2] was 60%. In the case of `O=C(CCn1ccc2cc(Cl)ccc21)NC1Cc2ccc(S(=O)(=O)Nc3nccs3)cc2C1` (stereo not shown) [Compound 4, 3-(5-Chloro-indol-1-yl)-N-[5-(thiazol-2-ylsulfamoyl)-indan-2-yl]-propionamide], on NaV1.3 [1] (setting [4]), the IC50 was under 2 µM. Same read-out and setting: under `CC(C)(C)c1ccc(OCC(=O)NC2Cc3ccc(S(=O)(=O)Nc4nccs4)cc3C2)cc1` (stereo not shown) [Compound 12] stands under 2 µM. Still for that read-out and setting: under `O=C(NC1Cc2ccc(S(=O)(=O)Nc3nccs3)cc2C1)c1ccc(Cl)c(Cl)c1` (stereo not shown) [Compound 8] stands 2 to 5 µM; under `O=C(NC1Cc2ccc(S(=O)(=O)Nc3nccs3)cc2C1)c1ccc(F)cc1` (stereo not shown) [Compound 6, 4-Fluoro-N-[5-(thiazol-2-ylsulfamoyl)-indan-2-yl]-benzamide], over 5 µM. As for `NC1=N[C@H](O)[C@H]2[C@H]3O[C@]4(O)O[C@@H]([C@@H](O)[C@@]2(N1)[C@@H]4O)[C@]3(O)CO` [TTX, tetrodotoxin], at NaV1.3 [3], the IC50 was 0.015 µM. As for `O=C(CCOc1ccccc1)NC1Cc2ccc(S(=O)(=O)Nc3nccs3)cc2C1` (stereo not shown) [Compound 15], the IC50 at NaV1.3 [1] (setting [4]) is over 5 µM. Same read-out and setting: as for `CC(C(=O)NC1Cc2ccc(S(=O)(=O)Nc3nccs3)cc2C1)n1ccc2ccccc21` (stereo not shown) [Compound 17, 2-Indol-1-yl-N-[5-(thiazol-2-ylsulfamoyl)-indan-2-yl]-propionamide], the figure is 2 to 5 µM. The same measure, in the same setting: as for `O=C(COc1cccc(Cl)c1)NC1Cc2ccc(S(=O)(=O)Nc3nccs3)cc2C1` (stereo not shown) [Compound 16, 2-(3-Chloro-phenoxy)-N-[5-(thiazol-2-ylsulfamoyl)-indan-2-yl]-acetamide], the figure is under 2 µM. Take `O=C(NC1Cc2ccc(S(=O)(=O)Nc3nccs3)cc2C1)Oc1cccc(C(F)(F)F)c1` (stereo not shown) [Compound 1]: at NaV1.3 [1], the IC50 was under 2 µM. Consider `O=C(COc1ccccc1)NC1Cc2ccc(S(=O)(=O)Nc3nccs3)cc2C1` (stereo not shown) [Compound 9], for which the IC50 at NaV1.3 [1] (setting [4]) is over 5 µM.
